Laboratory results from patent US20230331718A1, “COMPOSITIONS FOR MODULATING SPLICING” (Skyhawk Therapeutics, Inc., priority 2020, published 2023).

Key:
SMN2 Protein = experiment: SMN Protein Assay (MSD); format: cell-based, human; conditions: SMA patient fibroblasts, 48 hours, 0.6 nM to 2.5 µM
Summary of the method: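 SMA patient fibroblasts at 7,000 cells/well treated 48 h with compound from 0.6 nM to 2.5 µM, then lysed. SMN protein in lysate quantified by Mesoscale Discovery immunoassay against an SMN standard curve (19.5 pg/ml–1 µg/ml), giving absolute amounts.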

[1] = test system: SMN2 Splicing D7 (SMN Δ7 transcript); experiment: SMN Quantitative Splicing Assay (qPCR); format: cell-based, human; conditions: 24 h, SMA patient fibroblasts (GM03813), 2.5 µM to 0.6 nM
Protocol: Spinal muscular atrophy (SMA) patient fibroblasts (GM03813, Coriell) were plated in 96-well plates at 50,000 cells/well. […] Treated cells were lysed and cDNA synthesized using the Fast Advanced Cells-to-Ct kit (Thermofisher A35378) according to the manufacturer’s instructions. 2 µL of each cDNA were used in qPCR reactions. […] Reactions were run in a Quant Studio 6 qPCR instrument with default settings.

| SMILES | EC50 (SMN2 Protein) [nM] | IC50 ([1]; Homo sapiens, Fibroblast) [nM] | IC50 [1] [nM] |
| --- | --- | --- | --- |
| CCn1cc(F)c2cc(-c3ncc(N(C)[C@H]4CC5CC(F)(F)C(C4)N5)nn3)c(O)cc2c1=O (stereo partly shown) [Compound 212] | 501 to 10000 | 51 to 100 | – |
| CN(c1cnc(-c2cc3cccnc3cc2O)nn1)C1CC2CCC(N2)[C@H]1F (stereo partly shown) [Compound 24] | 16 to 50 | 16 to 50 | – |
| CN(c1cnc(-c2cc3ncn(C)c(=O)c3cc2O)nn1)C1C[C@@]2(C)CCC(N2)[C@@H]1F (stereo partly shown) [Compound 35] | 0.01 to 15 | 0.01 to 15 | – |
| CN(c1cnc(-c2cc3occc(=O)c3cc2O)nn1)[C@@H]1C[C@@]2(C)CC[C@](C)(N2)[C@@H]1F [Compound 59] | 16 to 50 | 16 to 50 | – |
| CCn1ccc2cc(O)c(-c3ncc(N(C)[C@H]4CC5CC[C@@H](N5)[C@H]4F)nn3)cc2c1=O [Compound 84] | 0.01 to 15 | 0.01 to 15 | – |
| CN(c1cnc(-c2cc3ncn(C)c(=O)c3cc2O)nn1)[C@@H]1CC2CCC(N2)[C@@H]1F (single isomer, unassigned) [Compound 3A] | 16 to 50 | 16 to 50 | – |
| [2H]C([2H])([2H])N(c1cnc(-c2cc3c(F)cn(C([2H])([2H])[2H])c(=O)c3cc2O)nn1)[C@H]1C[C@@H]2CC[C@@H](N2)[C@H]1C [Compound 193] | 0.01 to 15 | 0.01 to 15 | – |
| Cc1nc2cc(O)c(-c3ncc(N(C)[C@@H]4CC5CC[C@H](N5)[C@@H]4F)nn3)cc2nc1C [Compound 55] | 16 to 50 | 16 to 50 | – |
| CN(c1cnc(-c2cc3cnn(C)c(=O)c3cc2O)nn1)[C@@H]1C[C@@]2(C)CC[C@H](N2)[C@@H]1F [Compound 186] | 0.01 to 15 | 16 to 50 | – |
| Cc1nc2cc(-c3ncc(N(C)[C@@H]4CC5CCC(N5)[C@@H]4F)nn3)c(O)cc2c(=O)n1C (stereo partly shown) [Compound 213] | 0.01 to 15 | 16 to 50 | – |
| CN(c1cnc(-c2cc3cncnc3cc2O)nn1)C1CC2CCC(N2)[C@H]1F (stereo partly shown) [Compound 26] | 16 to 50 | 51 to 100 | – |
| CN(c1cnc(-c2cc3nccnc3cc2O)nn1)[C@@H]1CC2CC[C@H](N2)[C@@H]1F [Compound 57] | 16 to 50 | – | 101 to 500 |
| Cc1cc2cc(-c3ncc(N(C)[C@@H]4CC5CCCC(N5)[C@@H]4F)nn3)c(O)cc2cn1 (stereo partly shown) [Compound 47] | 16 to 50 | 51 to 100 | – |
| CN(c1cnc(-c2cc3c(=O)n(C)cnc3cc2O)nn1)C1CC2CCC(N2)[C@H]1F (stereo partly shown) [Compound 139] | 0.01 to 15 | 16 to 50 | – |
| CCc1cc(=O)c2cc(-c3ncc(N(C)[C@@H]4C[C@H]5CCCC(N5)[C@@H]4F)nn3)c(O)cc2o1 [Compound 115] | 16 to 50 | 101 to 500 | – |
| CN(c1cnc(-c2cc3cnn(C)c(=O)c3cc2O)nn1)[C@H]1C[C@]2(C)COC[C@](C)(C1)N2 [Compound 151] | 0.01 to 15 | 0.01 to 15 | – |
| Cc1cc2cc(-c3ncc(N(C)[C@@H]4CC5CCC(N5)[C@@H]4F)nn3)c(O)cc2cn1 (stereo partly shown) [Compound 43] | 16 to 50 | 51 to 100 | – |
| Cc1cc(=O)c2cc(O)c(-c3ncc(N(C)[C@@H]4C[C@H]5CCC(N5)[C@@H]4F)nn3)cc2o1 (single isomer, unassigned) [Compound 6A] | 0.01 to 15 | 16 to 50 | – |
| CN(c1cnc(-c2cc3cnccc3cc2O)nn1)[C@@H]1CC2CCC(N2)[C@@H]1F (single isomer, unassigned) [Compound 5A] | 101 to 500 | 101 to 500 | – |
| CN(c1cnc(-c2cc3c(=O)n(C)cnc3cc2O)nn1)C1CC2CCC(N2)[C@@H]1F (stereo partly shown) [Compound 140] | 16 to 50 | 101 to 500 | – |
| CC(C)n1cnc2cc(-c3ncc(N(C)C4CC5CCC(N5)[C@H]4F)nn3)c(O)cc2c1=O (stereo partly shown) [Compound 30] | 101 to 500 | 101 to 500 | – |

| SMILES | EC50 (SMN2 Protein) [nM] | IC50 ([1]; Homo sapiens, Fibroblast) [nM] | IC50 [1] [nM] |
| --- | --- | --- | --- |
| CN(c1cnc(-c2cc3ccn(C)c(=O)c3cc2O)nn1)C1CC2CC(F)(F)C(C1)N2 (stereo not shown) [Compound 141] | 101 to 500 | – | 101 to 500 |
| CN(c1cnc(-c2cc3oc(C(F)(F)F)cc(=O)c3cc2O)nn1)[C@H]1C[C@@H]2CCC(N2)[C@H]1F [Compound 80] | 0.01 to 15 | 0.01 to 15 | – |
| CCc1coc2cc(-c3ncc(N(C)[C@H]4C[C@@H]5CC[C@@H](N5)[C@H]4F)nn3)c(O)cc2c1=O (single isomer, unassigned) [Compound 96] | 0.01 to 15 | 0.01 to 15 | – |
| [2H]C([2H])([2H])N(c1cnc(-c2cc3ccn(C([2H])([2H])[2H])c(=O)c3cc2O)nn1)[C@H]1C[C@@H]2CCC(N2)[C@H]1F [Compound 167] | 0.01 to 15 | 0.01 to 15 | – |
| Cc1cc(=O)c2cc(O)c(-c3ncc(N(C)[C@H]4CC5CC[C@@H](N5)[C@H]4F)nn3)cc2o1 (single isomer, unassigned) [Compound 6B] | 0.01 to 15 | 0.01 to 15 | – |
| CN(c1cnc(-c2cc3occc(=O)c3cc2O)nn1)[C@H]1C[C@@H]2CCC(N2)[C@H]1F [Compound 18] | 0.01 to 15 | 0.01 to 15 | – |
| Cc1cc2cc(O)c(-c3ncc(N(C)[C@H]4C[C@@H]5CCCC(N5)[C@H]4F)nn3)cc2cn1 [Compound 78] | 0.01 to 15 | 0.01 to 15 | – |
| Cc1cc2cc(-c3ncc(N(C)[C@H]4CC5CCCC(N5)[C@H]4F)nn3)c(O)cc2cn1 (stereo partly shown) [Compound 48] | 0.01 to 15 | 0.01 to 15 | – |
| [2H]C([2H])([2H])n1cnc2cc(-c3ncc(N(C)[C@H]4C[C@@H]5CCC(N5)[C@H]4F)nn3)c(O)cc2c1=O [Compound 177] | 0.01 to 15 | 0.01 to 15 | – |
| CN(c1cnc(-c2cc3ccn(C)c(=O)c3cc2O)nn1)[C@H]1CC2CCC(N2)[C@H]1F (single isomer, unassigned) [Compound 4B] | 0.01 to 15 | 0.01 to 15 | – |
| Cc1cc(=O)c2cc(-c3ncc(N(C)[C@H]4C[C@@H]5CC[C@@H](N5)[C@H]4F)nn3)c(O)cc2o1 (single isomer, unassigned) [Compound 1B] | 0.01 to 15 | 16 to 50 | – |
| CN(c1cnc(-c2cc3occc(=O)c3cc2O)nn1)[C@H]1C[C@@H]2COCC(N2)[C@H]1F [Compound 68] | 501 to 10000 | 101 to 500 | – |
| CN(c1cnc(-c2cc3occc(=O)c3cc2O)nn1)[C@@H]1CC2COC[C@@H](C1)N2 [Compound 69] | 0.01 to 15 | 0.01 to 15 | – |
| CN(c1cnc(-c2cc3occc(=O)c3cc2O)nn1)[C@@H]1CC2CCC[C@H](N2)[C@@H]1F [Compound 60] | 0.01 to 15 | 16 to 50 | – |
| CN(c1cnc(-c2cc3ccn(C)c(=O)c3cc2O)nn1)[C@H]1CC2CC[C@@H](N2)[C@H]1F [Compound 7A] | 0.01 to 15 | 0.01 to 15 | – |
| CN(c1cnc(-c2cc3ncn(C)c(=O)c3cc2O)nn1)C1CC2CC(F)(F)C(C1)N2 (stereo not shown) [Compound 143] | 51 to 100 | – | 101 to 500 |
| CN(c1cnc(-c2cc3c(F)cn(C)c(=O)c3cc2O)nn1)[C@@H]1C[C@@]2(C)CCC(N2)[C@@H]1F [Compound 37] | 0.01 to 15 | 0.01 to 15 | – |
| Cc1nc2cc(O)c(-c3ncc(N(C)[C@H]4CC5CC[C@@H](N5)[C@H]4F)nn3)cc2nc1C [Compound 85] | 16 to 50 | 0.01 to 15 | – |
| Cc1cnc2cc(O)c(-c3ncc(N(C)[C@H]4CC5CCCC(N5)[C@H]4F)nn3)cc2n1 (stereo partly shown) [Compound 160] | 101 to 500 | 101 to 500 | – |
| CN(c1cnc(-c2cc3ncn(C)c(=O)c3cc2O)nn1)C1CC2COCC(C1)N2 (stereo not shown) [Compound 148] | 0.01 to 15 | 0.01 to 15 | – |
